Data published in US12013390B2, “EBIV nucleic acid composition and application thereof” (Wuhan Institute of Virology, Chinese Academy of Sciences, priority 2022, dated 2024).

Test system: BHK-21 cells
Assay: Cell viability per well (percentage of cells remaining) observed under a microscope in the drug screening test
Assay type: cell-based, hamster
Settings: infected BHK-21 cells with drug, 36 hours
Method: (1) A 96-well plate for BHK-21 cells was prepared. The cells were planked at 10^4 cells/well. The plate was cultured in a cell incubator with a temperature of 37° C. and a CO2 concentration of 5%. The drug screening test was conducted when the cells grew to 40-50%. The drug to be tested was dissolved in dimethyl sulfoxide. Then the drug was diluted to 100 μM with DMEM medium containing 2% FBS. After that, the drug was subjected to serial 2-fold dilution to obtain the dilution gradient with the concentration of 100 μM, 50 μM, 25 μM, 12.5 μM, 6.25 μM, 3.125 μM, and 1.5625 μM, respectively (the concentration of DMSO in the diluted drug shall be <0.1%).
(2) The original culture medium was removed from the 96-well plate. The virus was inoculated into the 96-well plate at an MOI of 0.01 and a volume of 100 μL/well. At the same time, the diluted drugs to be tested were respectively added into the same 96-well plate at 100 μL/well and mixed well with the virus solution. The plate was incubated in a cell incubator with a temperature of 37° C. and a CO2 concentration of 5% for 36 hours before detection.
(4) Cell viability per well (and the percentage of cells remaining per well) was observed under a microscope and the half-maximal effect concentration (EC50) of the drug was calculated using GraphPad Prism 9 software and an EC50 graph was plotted.

Compound	Cell viability [%]	other results
C[C@@]12C(=O)OC(=O)[C@]1(C)[C@H]1CC[C@@H]2O1 [Cantharidin]	50	–
CC(C)=CCc1c(O)ccc(C(=O)/C=C/c2ccc(O)cc2)c1O [Isobavachalcone]	30	–
CC(C)=CCc1cc2c(cc1O)oc(=O)c1c3ccc(O)cc3oc21 [Psoralidin]	50	–
CC(C)=CCC(OC(=O)C=C(C)C)C1=CC(=O)c2c(O)ccc(O)c2C1=O (stereo not drawn) [Beta, beta-dimethyl acryl shikonin]	70	–
Clinodiside Aogenin A	100	Cell viability (listed as clinodiside A): 100%
C=C[C@H]1[C@H](O[C@@H]2O[C@H](CO)[C@@H](O)[C@H](O)[C@H]2O)OC=C(C(=O)OC)[C@H]1CC(=O)O [Secoxyloganin]	100	Cell viability (listed as secoxyloganin): 100%
COc1ccc(-c2cc(=O)c3c(O)cc(O[C@@H]4O[C@H](CO[C@@H]5O[C@@H](C)[C@H](O)[C@@H](O)[C@H]5O)[C@@H](O)[C@H](O)[C@H]4O)cc3o2)cc1O [Diosmin, reference compound]	100	Cell viability (listed as diosmin): 100%
Oc1cc(O)c2c(c1)O[C@H](c1cc(O)c(O)c(O)c1)[C@H](O)C2 [Epigallocatechol]	0	–
C[C@H](CCC(=O)O)[C@H]1CC[C@H]2[C@@H]3[C@H](O)C[C@@H]4C[C@H](O)CC[C@]4(C)[C@H]3CC[C@]12C [Chenodeoxycholic acid, reference compound]	70	–
